From patent US5157052A, “Method for inhibiting IgE production” (priority 1990, dated 1992)

Key:
IgE [1] = assay: ED50 for inhibition of IgE calculated from the examples; format: in vivo, mouse; details: dose to achieve 50% inhibition of IgE
Procedure: From the data in the above examples, the effective dose of each prostaglandin to achieve 50% inhibition of IgE (ED50) was calculated.

IgE [2] = assay: Serum IgE response induced by FF1-4D5 + H∂A1 anti-IgD antibodies (ELISA, Assay A / Assay F); format: in vivo, mouse (Balb/c female)
Procedure: Mouse hybridoma cells expressing either FF1-4D5 antibody or H∂A1 antibody are thawed, established in culture, and incubated in mice as ascite tumors. FF1-4D5 antibody is a mouse IgG2a monoclonal antibody of the b allotype that binds the Fd fragment of the ∂ chain of the a allotype IgD which activates β cells through antigen internalization and processing, promoting cognate interactions with antigen-specific T cells (D. K. Goroff et al., J. Immunol. 136: 2382 (1986)). H∂A1 antibody is a mouse IgG2b of the b allotype that binds the Fc fragment of the ∂ chain of the a allotype IgD which activates β cells through crosslinking IgD (I. M. Zitron and B. L. Clevinger, J. Exp. Med. 152: 1135 (1980)). Each antibody is purified from their respective ascites tumor fluid. […] Serum from the injected mice is recovered and the mean concentration of IgE determined.
Serum levels of IgE are determined and IgE levels are shown to be inhibited in a dose dependent manner.
ELISA (enzyme linked immunosorbant assay) measurements of IgE are as follows. About 5 μg of B1E3 antibody in 100 μl borate buffered saline (pH8.5) is added to wells of a NuncImmulon II 96 well plate (DiRuscio & Assoc., St. Louis, Mo.) at 37° C. for 90 minutes. The non-bound antibody is removed by flicking the plate. Unreacted sites on the plastic plate are blocked by adding about 200 μl of a 2% solution of newborn bovine serum (NBS) in PBS at 37° C. for 60 minutes. The standard IgE (or an unknown murine serum sample) is diluted to between about 4 ng/ml-256 ng/ml in Hanks-HS (20 mM Hepes, 2% NBS in Hanks Balanced Salt Solution, Gibco, Grand Island, N.Y.) or to 1/200 to 1/1000 in Hanks-HS respectively. 100 μl of standard (or unknown dilutions) are added in triplicate to the wells of the plate and allowed to absorb to B1E3 antibody at about 37° C. for 2-4 hours. The solution is removed by flicking the plate and each well is washed with about 0.5 ml 0.05% Tween 20-PBS 5 times. About 100 μl of biotinylated R1E4, called the primary antibody, diluted to 200 ng/ml is added to all wells and incubated at about 4° C. overnight. The solution is removed by flicking the plate and washed 5 times as described above. The developing reagent (Avidin and biotin-horse radish peroxidase) is incubated in 2% NBS in PBS at ambient temperature for 30 minutes, according to manufacturer's specifications (Vector Laboratories, Burlingame, Calif.). About 100 μl of developing reagent is added to each well and incubated at ambient temperature for 30 minutes. Colorimetric substrate for the developing reagent (ABTS peroxidase substrate system, KPL, Gaithersburg, Md.) is prepared by mixing equal volumes of solutions A and B and incubating at ambient temperature for 60 minutes. The developing reagent solution is removed by flicking the plate and washed 5 times as described above. About 100 μl of the mixture of substrates is added to each well and incubated at ambient temperature for 60 minutes. The optical density of each well is determined on a BioTek ELISA reader (Biotek Instruments, Inc., Burlington, Vermont) and the absorbance data transferred electronically to a DEC VAX mainframe computer. A standard curve is fitted to the IgE standard optical densities using straight line, linear regression statistical fits. IgE in the unknown serum samples is determined by comparing the optical density of the unknown to the standard curve and multiplying that number by the dilution of serum used in the assay.
Stimulation of a transient serum IgE response in mouse with two monoclonal antibodies directed against IgD is carried out as follows.
Mouse hybridoma cells expressing either FF1-4D5 antibody or H∂Al antibody are thawed, established in culture, and incubated in CB6 F1 female mice as an ascites tumor and each immunoglobulin is purified from the ascites fluid as described above. […]

[3] = Diarrheal effects in rats; details: rat, in vivo, po
Procedure: Briefly, adult Charles River male rats weighing 210-230 g were individually housed and fasted with water available ad libitum for 24 hours prior to the test. The animals (N=6-12) received logarithmically graded prostaglandin doses orally. Immediately after administration, the animals were returned to their cages, and diarrhea, if any, was assessed on an all or none basis for 8 hours after drug treatment. The ED50 and relative potency values were calculated by the logistic method of Berkson.

IgG2a = assay: Serum IgG2a in anti-IgD stimulated mice (two site sandwich ELISA, Assay C); format: in vivo, mouse (Balb/c female); details: 40 μg days 3 and 4; for IgG2a ± SD: Table 11
Procedure: Sera from mice treated with compounds in accordance with the method of the invention are analyzed for levels of IgG1, IgG2a, IgG3, and IgM.
Measurement of mouse IgG2a by a two site sandwich ELISA is performed in substantial accordance with the teaching of Assay B except with the following changes. NuncImmulon II plates are used in this assay. The IgG2a standard is purchased from Southern Biotech. The standard curve is linear between 4-250 ng/ml. Serum containing IgG2a is diluted 1/6400 to 1/1,000,000. About a 1/6,000 dilution of goat anti mouse IgG2a (Southern Biotech) conjugated to alkaline phosphatase is used.
Sera from the mice described in Example 13 are analyzed for the levels of IgG1, IgG2a, and IgG3 by Assays B, C, and D, respectively.
Two groups of 4 Balb/c female mice per group are injected with both 100 μg FF1-4D5 antibody and 100 μg H∂A1 antibody. One of these groups is a stimulated control designated Group B. On day 3 and 4, the other group is injected with 40 μg (±) methyl 11α, 16-dihydroxy-1-methyl-9-oxoprosta-4Z,13E-dien-1-oate. Another group is injected with only PBS as an unstimulated control (Group A). On day -1 and 8, 50-100 μl of serum is recovered and analyzed for IgE, IgG1 and IgG2a by Assays A, B, and C, respectively.
3 groups of 4 Balb/c female mice per group are injected with both 100 μg FF1-4D5 antibody and 100 μg H∂A1 antibody on day 0. Group A is given no further treatment. On day 3 and 4, one group of mice is injected with 20 μg (±) methyl 2-[2-[3R-3α-hydroxy-2β-(4-hydroxy-4-methyl-1E-octenyl-5-oxo-1α-cyclopentyl]-methyl]cyclopropanebutanoate (Group B) and another group with 20 μg (±) methyl 2-[2-[3R-3α-hydroxy-2β-(4-hydroxy-4-methyl-1E-octenyl)-5-oxo-1α-cyclopentyl]ethyl]cyclopropanepropanoate (Group C) as in Example 13. On day -1 and 8, 50-100 μl of serum is recovered and analyzed for IgE, IgG1, IgG2a and IgG3 by Assays A, B, C and D, respectively. The selectivity of inhibition of IgE is shown in Table 12.
Three groups of 5 Balb/c female mice per group are injected with both 100 μg FF1-4D5 antibody and 100 μg H∂A1 antibody on day 0. Group A is a control with no further treatment. On day 3 and 4, the mice are injected with 20 μg (±) methyl 11α,16-dihydroxy-4,4,16-trimethyl-9-oxoprosta-13E-en-1-oate (Group B) or 20 μg (±) methyl 11α,16-dihydroxy-16-methyl-9-oxoprosta-3,5Z,13E-trien-1-oate (Group C) as in Example 13. On day -1 and 8, […] of serum is recovered and analyzed for IgE, IgG1, IgG2a, IgG3 and IgM by Assays A, B, C, D and E, respectively.

IgG1 = assay: Serum IgG1 in anti-IgD stimulated mice (two site sandwich ELISA, Assay B); format: in vivo, mouse (Balb/c female); details: 40 μg days 3 and 4; for IgG1 ± SD: Table 11
[4] = Table 15, 20 μg days 3 and 4, day 8 (control 5090)
[5] = Table 15, 20 μg days 3 and 4, day -1 baseline before treatment
[6] = Table 16, 10 μg days 3 and 4, day 8 (control 8548)
[7] = Table 16, 10 μg days 3 and 4, day -1 baseline before treatment
[8] = day -1 baseline before treatment

| SMILES | ED50 IgE Inhibition (IgE [1]) [μg/mouse/TID] | de novo IgE synthesis (IgE [2]; 20 μg days 3 and 4, Example 26) | IgE ± SD (IgE [2]; [4]) [ng/mL] | IgE ± SD (IgE [2]; [5]) [ng/mL] | TD50 at 8 h [3] [mg/kg] | de novo IgE synthesis (IgE [2]; 10 μg days 3 and 4, Example 27) | IgE ± SD (IgE [2]; [6]) [ng/mL] | IgE ± SD (IgE [2]; [7]) [ng/mL] | other results |
| --- | --- | --- | --- | --- | --- | --- | --- | --- | --- |
| CCCCC(C)(O)C/C=C/[C@H]1[C@H](O)CC(=O)[C@@H]1CCCCCCC(=O)Oc1ccc(NC(C)=O)cc1 (mixture of isomers) [(±) 4-(acetylamino)phenyl-11α,16-dihydroxy-16-methyl-9-oxoprost-13E-en-1-oate] | 1.0 | inhibit de novo IgE synthesis | 1880 ± 319 | < 800 | – | – | – | – | – |
| CCCCC(C)(O)C/C=C/[C@H]1[C@H](O)CC(=O)[C@@H]1CCCCCCC(=O)O (mixture of isomers) [(±) 11α,16-dihydroxy-16-methyl-9-oxo-prost-13E-en-1-oic acid] | – | inhibit de novo IgE synthesis | 1499 ± 132 | 1029 ± 362 | – | – | – | – | – |
| CCCCC(C)(O)C/C=C/[C@H]1[C@H](O)CC(=O)[C@@H]1CCCCCCC(=O)OC (mixture of isomers) [(±) methyl 11α,16-dihydroxy-16-methyl-9-oxoprost-13E-en-1-oate] | 1.5 | – | – | – | 0.36 | inhibit de novo IgE synthesis | 2123 ± 257 | < 1600 | – |
| CCCCC(C)(O)C/C=C/[C@H]1[C@H](O)CC(=O)[C@@H]1CC/C=C\CCC(=O)OC (mixture of isomers) [(±) methyl 11α,16-dihydroxy-16-methyl-9-oxoprosta-4Z,13E-dien-1-oate] | 4.0 | – | – | – | 0.049 | – | – | – | effect on IgG2a (IgG2a): does not effect IgG1 or IgG2a; IgG2a ± SD (IgG2a; day 9 (control 1056)): 1058 ± 202 µg/mL; IgG2a ± SD (IgG2a; [8]): 160 ± 130 µg/mL; effect on IgG1 (IgG1): does not effect IgG1 or IgG2a; IgG1 ± SD (IgG1; day 9 (control 19800)): 37728 ± 6913 µg/mL; IgG1 ± SD (IgG1; [8]): 2331 ± 2212 µg/mL; de novo IgE synthesis (IgE [2]; 40 μg days 3 and 4): inhibits de novo IgE synthesis; IgE ± SD (IgE [2]; Table 11, 40 μg days 3 and 4, day 8 (control 15890)): 3973 ± 905 ng/mL; IgE ± SD (IgE [2]; Table 11, 40 μg days 3 and 4, day -1 baseline before treatment): 1717 ± 313 ng/mL |
| CCCCC(C)(O)CCC[C@H]1[C@H](O)CC(=O)[C@@H]1CCCCCCC(=O)OC (mixture of isomers) [(±) methyl-11α,16-dihydroxy-16-methyl-9-oxoprostan-1-oate] | 4.8 | – | – | – | – | inhibit de novo IgE synthesis | 3844 ± 238 | < 1600 | – |
| CCCCC(C)(O)C/C=C/[C@H]1[C@H](O)CC(=O)[C@@H]1CCCCCCC(=O)OC(C)C (relative stereo) [(±) methylethyl-11α,16-dihydroxy-16-methyl-9-oxoprost-13E-en-1-oate] | 1.5 | – | – | – | – | – | 2127 ± 149 | < 1600 | – |
